This is an account of results in US20110077251A1, “NOVEL 17 BETA LUPANE DERIVATIVES” (priority 2009, published 2011).

For one experiment, the system named is HIVIIIB. Put plainly: HIV-1 replication in MT2 cell line without human serum (RT activity in supernatant). The experiment is classed as cell-based. The following applies: Human immunodeficiency virus 1, 120 h, MT2 cells, day 5 after infection, average if tested more than once, read-out: MT2 (HIVIIIB) IC50 range. As to the method: (§1) HIV-1 Replication in MT2 cell line with and without 30% human serum: The cells are infected at a Multiciplicity of Infection (MOI) of 0.5 for 3 h and then washed twice with complete media to remove residual virus. Cells are then resuspended at 0.5×10^6/ml in complete medium (RPMI, 10% FBS, 1% sodium pyruvate), and seeded into 96-well plates (6.25×10^4/well). The cells are cultured in the presence or absence of various concentrations of test compounds in serial dilutions for 3 days at 37° C. The test compounds are serially diluted in complete medium supplemented or not with 30% human serum. After 3 days, 100 μL of cultured medium with cells are replaced with 120 μL of freshly diluted test compounds in complete medium containing or not 30% Human serum. The level of HIV-1 replication is determined at days 5 after infection by the presence of viral RT activity in harvested supernatant fluid. The IC50 values for the virus replication are determined by using GRAPHPAD PRISM software.
(§2) The IC50 of the compounds tested in accordance with the HIV replication activity assay MT2 (HIVIIIB) with or without human serum are represented in Table 6.
By IC50 is commonly meant the concentration that gives 50% inhibition. For the molecule `C=C(C)[C@@H]1CC[C@]2(NC(=O)c3ccccc3)CC[C@]3(C)[C@H](CC[C@@H]4[C@@]5(C)CC[C@H](OC(=O)CC(C)(C)C(=O)O)C(C)(C)[C@@H]5CC[C@]43C)[C@@H]12` [Cpd 13-7, 17β-Benzoylamino-3β-O-(3′,3′-dimethylsuccinyl)-28-norlup-20(29)-ene], the IC50 is under 199 nM.

In the case of `C=C(C)[C@@H]1CC[C@]2(NC(=O)N[C@@H](C(=O)O)C(C)C)CC[C@]3(C)[C@H](CC[C@@H]4[C@@]5(C)CC[C@H](OC(=O)CC(C)(C)CC(=O)O)C(C)(C)[C@@H]5CC[C@]43C)[C@@H]12` [Cpd 11-5, 3β-O-(3′,3′-Dimethylglutaryl)-28-norlup-20(29)-ene-17β-yl-N-carbamoyl-L-valine], the IC50 was under 199 nM.

As for `C=C(C)[C@@H]1CC[C@]2(NC(=O)OCc3ccccc3)CC[C@]3(C)[C@H](CC[C@@H]4[C@@]5(C)CC[C@H](OC(=O)CC(C)(C)C(=O)O)C(C)(C)[C@@H]5CC[C@]43C)[C@@H]12` [Cpd 14-2, 3β-O-(3′,3′-Dimethylsuccinyl)-17β-benzyloxycarbonylamino-28-norlup-20(29)-ene], the IC50 is under 199 nM.

For the molecule `C=C(C)[C@@H]1CC[C@]2(NC(=O)CC(C)(C)C(=O)O)CC[C@]3(C)[C@H](CC[C@@H]4[C@@]5(C)CC[C@H](OC(=O)CC(C)(C)C(=O)O)C(C)(C)[C@@H]5CC[C@]43C)[C@@H]12` [Cpd 13-4, 3β-O,17β-N-bis(3′,3′-dimethylsuccinyl)-28-norlup-20(29)-ene], the IC50 was under 199 nM.

A further experiment deals with HIVIIIB. Put plainly: HIV-1 replication in MT2 cell line with 30% human serum (RT activity in supernatant). The experiment is classed as cell-based. The following applies: Human immunodeficiency virus 1, 120 h, MT2 cells, day 5 after infection, average if tested more than once, read-out: MT2 (HIVIIIB) with human serum IC50 range. The method, then:
as §1, §2
For the molecule `C=C(C)[C@@H]1CC[C@]2(NC(=O)N(C)C)CC[C@]3(C)[C@H](CC[C@@H]4[C@@]5(C)CC[C@H](OC(=O)CC(C)(C)C(=O)O)C(C)(C)[C@@H]5CC[C@]43C)[C@@H]12` [Cpd 11-13, 3β-O-(3′,3′-Dimethylsuccinyl)-17β-(N′,N′-dimethyl-ureido)-28-norlup-20(29)-ene], the IC50 is under 199 nM.

Turning to `C=C(C)[C@@H]1CC[C@]2(N)CC[C@]3(C)[C@H](CC[C@@H]4[C@@]5(C)CC[C@H](OC(=O)CC(C)(C)C(=O)O)C(C)(C)[C@@H]5CC[C@]43C)[C@@H]12` [Cpd 9-1, 17β-Amino-3β-O-(3′,3′-dimethylsuccinyl)-28-norlup-20(29)-ene], the concentration for half-maximal inhibition (IC50) is under 199 nM.

As to `C=C(C)[C@@H]1CC[C@]2(NC(=O)c3cscn3)CC[C@]3(C)[C@H](CC[C@@H]4[C@@]5(C)CC[C@H](OC(=O)CC(C)(C)C(=O)O)C(C)(C)[C@@H]5CC[C@]43C)[C@@H]12` [Cpd 13-13, 3β-O-(3′,3′-Dimethylsuccinyl)-17β-[(thiazol-4-ylcarbonyl)-amino]-28-norlup-20(29)-ene], the IC50 is under 199 nM.

`C=C(C)[C@@H]1CC[C@]2(NC(=O)N3CCCC3)CC[C@]3(C)[C@H](CC[C@@H]4[C@@]5(C)CC[C@H](OC(=O)CC(C)(C)C(=O)O)C(C)(C)[C@@H]5CC[C@]43C)[C@@H]12` [Cpd 11-29, 3β-O-(3′,3′-Dimethylsuccinyl)-17β-[(pyrrolidine-1-carbonyl)-amino]-28-norlup-20(29)-ene]: the IC50 is under 199 nM.

With `C=C(C)[C@@H]1CC[C@]2(NC(=O)Nc3ccncc3)CC[C@]3(C)[C@H](CC[C@@H]4[C@@]5(C)CC[C@H](OC(=O)CC(C)(C)C(=O)O)C(C)(C)[C@@H]5CC[C@]43C)[C@@H]12` [Cpd 11-26, 3β-O-(3′,3′-Dimethylsuccinyl)-17β-(N′-pyridin-4-yl-ureido)-28-norlup-20(29)-ene], the IC50 was under 199 nM.

Take `C=C(C)[C@@H]1CC[C@]2(NC(=O)NCc3ccc(F)cc3)CC[C@]3(C)[C@H](CC[C@@H]4[C@@]5(C)CC[C@H](OC(=O)CC(C)(C)C(=O)O)C(C)(C)[C@@H]5CC[C@]43C)[C@@H]12` [Cpd 11-18, 3β-O-(3′,3′-Dimethylsuccinyl)-17β-(N′-4-fluorophenylmethyl-ureido)-28-norlup-20(29)-ene]: the concentration for half-maximal inhibition (IC50) is under 199 nM.

For `C=C(C)[C@@H]1CC[C@]2(NC(=O)c3ccncc3)CC[C@]3(C)[C@H](CC[C@@H]4[C@@]5(C)CC[C@H](OC(=O)[C@H]6CCC[C@@H](C(=O)O)C6)C(C)(C)[C@@H]5CC[C@]43C)[C@@H]12` [Cpd 13-15, 3β-O-(cis-Cyclohexane-3′-carboxylic acid-1′-carboxyl)-17β-(pyridin-4-ylcarbonyl)-amino-28-norlup-20(29)-ene], the IC50 was over 1000 nM.

For `C=C(C)[C@@H]1CC[C@]2(NC(=O)N[C@H](C)c3ccccc3)CC[C@]3(C)[C@H](CC[C@@H]4[C@@]5(C)CC[C@H](OC(=O)CC(C)(C)C(=O)O)C(C)(C)[C@@H]5CC[C@]43C)[C@@H]12` [Cpd 11-27, 3β-O-(3′,3′-Dimethylsuccinyl)-17β-(N′-(R)-1-phenyl-ethyl-ureido)-28-norlup-20(29)-ene], the IC50 is under 199 nM.

Regarding `C=C(C)[C@@H]1CC[C@]2(NC(=O)OC(C)(C)C)CC[C@]3(C)[C@H](CC[C@@H]4[C@@]5(C)CC[C@H](OC(=O)[C@H]6CC[C@@](C)(C(=O)O)C6(C)C)C(C)(C)[C@@H]5CC[C@]43C)[C@@H]12` [Cpd 8-3, 3β-O-[(1′S,3′R)-2′,2′,3′-Trimethyl-cyclopentane-3′-carboxylic acid-1′-carboxyl]-17β-tert-butyloxycarbonylamino-28-norlup-20(29)-ene], the IC50 is over 1000 nM.

Consider `C=C(C)[C@@H]1CC[C@]2(NC(=O)NC(C)(C)c3ccccc3)CC[C@]3(C)[C@H](CC[C@@H]4[C@@]5(C)CC[C@H](OC(=O)CC(C)(C)C(=O)O)C(C)(C)[C@@H]5CC[C@]43C)[C@@H]12` [Cpd 11-28, 3β-O-(3′,3′-Dimethylsuccinyl)-17β-[N′-(1-methyl-1-phenylethyl)-ureido]-28-norlup-20(29)-ene], for which the IC50 is under 199 nM.

For `C=C(C)[C@@H]1CC[C@]2(NC(=O)Nc3nccs3)CC[C@]3(C)[C@H](CC[C@@H]4[C@@]5(C)CC[C@H](OC(=O)CC(C)(C)C(=O)O)C(C)(C)[C@@H]5CC[C@]43C)[C@@H]12` [Cpd 11-19, 3β-O-(3′,3′-Dimethylsuccinyl)-17β-(N′-thiazol-2-yl-ureido)-28-norlup-20(29)-ene], the IC50 is under 199 nM.

For `C=C(C)[C@@H]1CC[C@]2(NC(=O)NCC3CCCCC3)CC[C@]3(C)[C@H](CC[C@@H]4[C@@]5(C)CC[C@H](OC(=O)CC(C)(C)C(=O)O)C(C)(C)[C@@H]5CC[C@]43C)[C@@H]12` [Cpd 11-20, 3β-O-(3′,3′-Dimethylsuccinyl)-17β-(N′-cyclohexylmethyl-ureido)-28-norlup-20(29)-ene], the IC50 was under 199 nM.

On to `C=C(C)[C@@H]1CC[C@]2(N)CC[C@]3(C)[C@H](CC[C@@H]4[C@@]5(C)CC[C@H](OC(=O)[C@H]6CC[C@@](C)(C(=O)O)C6(C)C)C(C)(C)[C@@H]5CC[C@]43C)[C@@H]12` [Cpd 9-2, 3β-O-[(1′S,3′R)-2′,2′,3′-Trimethyl-cyclopentane-3′-carboxylic acid-1′-carboxyl]-17β-amino-28-norlup-20(29)-ene], for which the IC50 was under 199 nM.

As to `C=C(C)[C@@H]1CC[C@]2(NC(=O)Nc3ccc(F)cc3)CC[C@]3(C)[C@H](CC[C@@H]4[C@@]5(C)CC[C@H](OC(=O)CC(C)(C)C(=O)O)C(C)(C)[C@@H]5CC[C@]43C)[C@@H]12` [Cpd 11-17, 3β-O-(3′,3′-Dimethylsuccinyl)-17β-(N′-4-fluorophenyl-ureido)-28-norlup-20(29)-ene], the IC50 is under 199 nM.

As to `C=C(C)[C@@H]1CC[C@]2(NC(=O)NCC3CCOCC3)CC[C@]3(C)[C@H](CC[C@@H]4[C@@]5(C)CC[C@H](OC(=O)CC(C)(C)C(=O)O)C(C)(C)[C@@H]5CC[C@]43C)[C@@H]12` [Cpd 11-21, 3β-O-(3′,3′-Dimethylsuccinyl)-17β-(N′-tetrahydropyran-4-ylmethyl-ureido)-28-norlup-20(29)-ene], the IC50 was under 199 nM.

As to `C=C(C)[C@@H]1CC[C@]2(NC(=O)N[C@@H](C)c3ccccc3)CC[C@]3(C)[C@H](CC[C@@H]4[C@@]5(C)CC[C@H](OC(=O)CC(C)(C)C(=O)O)C(C)(C)[C@@H]5CC[C@]43C)[C@@H]12` [Cpd 11-23, 3β-O-(3′,3′-Dimethylsuccinyl)-17β-(N′-(S)-1-phenyl-ethyl-ureido)-28-norlup-20(29)-ene], the IC50 is under 199 nM.

For the molecule `C=C(C)[C@@H]1CC[C@]2(NC(=O)Nc3ccccc3)CC[C@]3(C)[C@H](CC[C@@H]4[C@@]5(C)CC[C@H](OC(=O)CC(C)(C)C(=O)O)C(C)(C)[C@@H]5CC[C@]43C)[C@@H]12` [Cpd 11-12, 3β-O-(3′,3′-Dimethylsuccinyl)-17β-(N′-phenyl-ureido)-28-norlup-20(29)-ene], the IC50 is under 199 nM.

Still in this experiment, the particulars now being: MT2 cells, day 5 after infection, average if tested more than once, read-out: MT2 (HIVIIIB) with human serum IC50 range.
On to “3β-O-(2′,2′-Dimethylsuccinyl)-17β-tert-butyloxycarbonylamino-28-norlup-20(29)-ene [Cpd 8-2]”, for which the IC50 was over 1000 nM.

In the case of `C=C(C)C1CCC2(NCC3CC3)CCC3(C)C(CCC4C5(C)CCC(OC(=O)CC(C)(C)C(=O)O)C(C)(C)C5CCC43C)C12` (stereo not drawn) [Cpd 10-2, 17β-(Cyclopropylmethyl-amino)-3β-O-(3′,3′-dimethylsuccinyl)-28-norlup-20(29)-ene], the IC50 is under 199 nM.
